Test results published in ChEMBL document CHEMBL1799927, “Discovery of imidazo[1,2-a]pyrazine-based Aurora kinase inhibitors” (Bioorg Med Chem Lett, 2010).
Converted amounts (≈) assume the structure as drawn. One block for each molecule: values may come before it.

Assays:
[1] = target: Aurora kinase B (Homo sapiens, UniProt Q96GD4); assay: Inhibition of aurora B kinase using 5TAMRA-GRTGRRNSICOOH as substrate by fluorescent assay
[2] = target: T1, Aurora kinase A (Homo sapiens, UniProt O14965); assay: Inhibition of aurora A kinase using 5TAMRA-GRTGRRNSICOOH as substrate by fluorescent assay
T1 sequence (O14965 whole entry): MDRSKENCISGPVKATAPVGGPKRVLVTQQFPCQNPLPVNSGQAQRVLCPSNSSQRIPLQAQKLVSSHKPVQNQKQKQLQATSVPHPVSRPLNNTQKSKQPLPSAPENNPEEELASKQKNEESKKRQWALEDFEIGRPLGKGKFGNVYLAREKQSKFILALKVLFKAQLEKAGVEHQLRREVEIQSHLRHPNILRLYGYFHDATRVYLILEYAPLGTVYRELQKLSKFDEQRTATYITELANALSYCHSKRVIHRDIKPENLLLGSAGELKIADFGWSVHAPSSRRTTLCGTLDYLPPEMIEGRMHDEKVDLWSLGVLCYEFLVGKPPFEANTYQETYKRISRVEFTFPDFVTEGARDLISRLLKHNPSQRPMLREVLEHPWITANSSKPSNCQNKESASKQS

[3] = cells; assay type: cell-based; settings: Homo sapiens, HCT-116, 1 h
[4] = target: RAC-alpha serine/threonine-protein kinase (Homo sapiens, UniProt P31749); assay: Inhibition of Akt1
[5] = target: Cytochrome P450 3A4 (Homo sapiens, UniProt P08684); assay: inhibition of CYP3A4; assay type: ADME
[6] = target: Calcium/calmodulin-dependent protein kinase type IV (Homo sapiens, UniProt Q16566); assay: Inhibition of Camk4
Chain of Calcium/calmodulin-dependent protein kinase type IV (Q16566 whole entry): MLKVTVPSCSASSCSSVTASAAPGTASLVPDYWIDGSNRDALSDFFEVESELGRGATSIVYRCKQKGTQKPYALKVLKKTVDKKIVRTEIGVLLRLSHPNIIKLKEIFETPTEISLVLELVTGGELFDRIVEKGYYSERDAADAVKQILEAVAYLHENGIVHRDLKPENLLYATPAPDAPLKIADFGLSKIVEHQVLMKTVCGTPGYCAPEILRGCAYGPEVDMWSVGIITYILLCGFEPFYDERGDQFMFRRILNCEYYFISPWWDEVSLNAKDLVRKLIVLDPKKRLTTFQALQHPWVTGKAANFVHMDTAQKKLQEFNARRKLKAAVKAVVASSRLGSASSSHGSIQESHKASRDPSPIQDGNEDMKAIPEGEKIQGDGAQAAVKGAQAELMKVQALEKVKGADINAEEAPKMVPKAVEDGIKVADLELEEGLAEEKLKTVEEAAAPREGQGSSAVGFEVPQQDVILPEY

[7] = target: Testis-specific serine/threonine-protein kinase 2 (Homo sapiens, UniProt Q96PF2); assay: Inhibition of TSSK2
Chain of Testis-specific serine/threonine-protein kinase 2 (Q96PF2 whole entry): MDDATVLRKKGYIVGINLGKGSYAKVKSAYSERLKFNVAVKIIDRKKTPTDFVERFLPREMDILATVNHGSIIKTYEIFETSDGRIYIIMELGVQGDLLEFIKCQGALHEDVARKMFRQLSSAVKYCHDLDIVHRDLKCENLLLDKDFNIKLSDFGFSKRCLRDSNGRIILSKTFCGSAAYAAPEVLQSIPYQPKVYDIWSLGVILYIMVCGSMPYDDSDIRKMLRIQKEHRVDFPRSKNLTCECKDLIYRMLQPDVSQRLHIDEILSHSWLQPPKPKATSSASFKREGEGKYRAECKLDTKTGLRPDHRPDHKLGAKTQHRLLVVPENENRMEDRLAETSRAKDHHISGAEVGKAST

[8] = target: Cytochrome P450 2C9 (Homo sapiens, UniProt P11712); assay: inhibition of CYP2C9; assay type: ADME
[9] = Clearance in mouse; assay type: ADME, organism-based; settings: in vivo
[10] = target: Tyrosine-protein kinase JAK2 (Homo sapiens, UniProt O60674); assay: Inhibition of Jak2
[11] = Plasma protein binding in human; assay type: ADME, cell-free; settings: read-out: PPB (converted)
[12] = target: Rho-associated protein kinase 2 (Homo sapiens, UniProt O75116); assay: Inhibition of Rock2
Chain of Rho-associated protein kinase 2 (O75116 whole entry): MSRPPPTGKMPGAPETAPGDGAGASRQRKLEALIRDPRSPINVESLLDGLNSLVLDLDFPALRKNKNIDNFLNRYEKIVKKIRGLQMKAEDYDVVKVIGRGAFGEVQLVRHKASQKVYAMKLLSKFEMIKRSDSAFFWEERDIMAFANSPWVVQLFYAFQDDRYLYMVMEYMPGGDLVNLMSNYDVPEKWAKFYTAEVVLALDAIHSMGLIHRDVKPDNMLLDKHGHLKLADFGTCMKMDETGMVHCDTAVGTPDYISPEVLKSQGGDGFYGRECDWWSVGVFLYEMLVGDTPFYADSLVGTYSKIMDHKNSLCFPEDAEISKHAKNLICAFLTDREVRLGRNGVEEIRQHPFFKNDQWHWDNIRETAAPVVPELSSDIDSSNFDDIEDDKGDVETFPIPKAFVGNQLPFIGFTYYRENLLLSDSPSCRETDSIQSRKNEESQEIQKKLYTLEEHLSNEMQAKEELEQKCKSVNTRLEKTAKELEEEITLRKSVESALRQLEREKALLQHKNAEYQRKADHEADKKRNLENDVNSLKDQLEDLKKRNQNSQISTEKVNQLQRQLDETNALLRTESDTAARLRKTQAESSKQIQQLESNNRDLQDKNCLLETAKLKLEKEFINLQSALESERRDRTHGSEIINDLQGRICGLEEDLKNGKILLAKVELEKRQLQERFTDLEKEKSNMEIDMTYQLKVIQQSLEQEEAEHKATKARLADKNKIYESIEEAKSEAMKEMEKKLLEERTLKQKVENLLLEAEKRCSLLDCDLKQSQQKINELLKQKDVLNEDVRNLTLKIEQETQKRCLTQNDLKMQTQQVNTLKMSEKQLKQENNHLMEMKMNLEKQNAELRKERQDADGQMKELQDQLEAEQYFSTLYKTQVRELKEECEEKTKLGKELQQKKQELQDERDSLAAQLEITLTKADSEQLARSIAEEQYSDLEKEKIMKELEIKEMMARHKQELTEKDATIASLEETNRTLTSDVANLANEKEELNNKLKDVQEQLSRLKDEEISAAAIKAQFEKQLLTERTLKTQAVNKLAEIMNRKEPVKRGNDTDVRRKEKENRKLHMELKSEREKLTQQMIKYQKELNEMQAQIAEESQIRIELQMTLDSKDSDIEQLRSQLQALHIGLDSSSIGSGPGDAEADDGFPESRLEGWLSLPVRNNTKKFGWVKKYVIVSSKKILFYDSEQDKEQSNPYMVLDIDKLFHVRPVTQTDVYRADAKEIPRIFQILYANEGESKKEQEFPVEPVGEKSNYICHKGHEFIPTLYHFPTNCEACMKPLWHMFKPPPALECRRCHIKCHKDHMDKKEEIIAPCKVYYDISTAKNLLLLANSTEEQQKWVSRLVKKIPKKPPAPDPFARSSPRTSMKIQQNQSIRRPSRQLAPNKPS

[13] = target: Tyrosine-protein kinase Lck (Homo sapiens, UniProt P06239); assay: Inhibition of LCK
[14] = target: Cytochrome P450 2D6 (Homo sapiens, UniProt P10635); assay: inhibition of CYP2D6; assay type: ADME
[15] = target: Serine/threonine-protein kinase 3 (Homo sapiens, UniProt Q13188); assay: Inhibition of MST2
[16] = target: Interleukin-1 receptor-associated kinase 4 (Homo sapiens, UniProt Q9NWZ3); assay: Inhibition of IRAK4
[17] = target: hERG (KCNH2) (Homo sapiens, UniProt Q12809); assay: Inhibition of human ERG assessed as Rb efflux at 1.5 ug/ml
[18] = target: Protein kinase C alpha type (Homo sapiens, UniProt P17252); assay: Inhibition of PKCa
[19] = target: Inhibitor of nuclear factor kappa-B kinase subunit beta (Homo sapiens, UniProt O14920); assay: Inhibition of IKKb
[20] = Permeability across apical to basolateral side in human Caco2 cell membrane; assay type: ADME, cell-based; settings: Caco-2, read-out: permeability
[21] = Clearance in human hepatocytes assessed per million cells; assay type: ADME, cell-based, Liver, Hepatocyte
[22] = target: Serine/threonine-protein kinase PLK3 (Homo sapiens, UniProt Q9H4B4); assay: Inhibition of PLK3
[23] = target: Vascular endothelial growth factor receptor 2 (Homo sapiens, UniProt P35968); assay: Inhibition of VEGFR2
[24] = Inhibition of IGRF
[25] = target: Hepatocyte growth factor receptor (Homo sapiens, UniProt P08581); assay: Inhibition of cMet
Chain of Hepatocyte growth factor receptor (P08581 whole entry): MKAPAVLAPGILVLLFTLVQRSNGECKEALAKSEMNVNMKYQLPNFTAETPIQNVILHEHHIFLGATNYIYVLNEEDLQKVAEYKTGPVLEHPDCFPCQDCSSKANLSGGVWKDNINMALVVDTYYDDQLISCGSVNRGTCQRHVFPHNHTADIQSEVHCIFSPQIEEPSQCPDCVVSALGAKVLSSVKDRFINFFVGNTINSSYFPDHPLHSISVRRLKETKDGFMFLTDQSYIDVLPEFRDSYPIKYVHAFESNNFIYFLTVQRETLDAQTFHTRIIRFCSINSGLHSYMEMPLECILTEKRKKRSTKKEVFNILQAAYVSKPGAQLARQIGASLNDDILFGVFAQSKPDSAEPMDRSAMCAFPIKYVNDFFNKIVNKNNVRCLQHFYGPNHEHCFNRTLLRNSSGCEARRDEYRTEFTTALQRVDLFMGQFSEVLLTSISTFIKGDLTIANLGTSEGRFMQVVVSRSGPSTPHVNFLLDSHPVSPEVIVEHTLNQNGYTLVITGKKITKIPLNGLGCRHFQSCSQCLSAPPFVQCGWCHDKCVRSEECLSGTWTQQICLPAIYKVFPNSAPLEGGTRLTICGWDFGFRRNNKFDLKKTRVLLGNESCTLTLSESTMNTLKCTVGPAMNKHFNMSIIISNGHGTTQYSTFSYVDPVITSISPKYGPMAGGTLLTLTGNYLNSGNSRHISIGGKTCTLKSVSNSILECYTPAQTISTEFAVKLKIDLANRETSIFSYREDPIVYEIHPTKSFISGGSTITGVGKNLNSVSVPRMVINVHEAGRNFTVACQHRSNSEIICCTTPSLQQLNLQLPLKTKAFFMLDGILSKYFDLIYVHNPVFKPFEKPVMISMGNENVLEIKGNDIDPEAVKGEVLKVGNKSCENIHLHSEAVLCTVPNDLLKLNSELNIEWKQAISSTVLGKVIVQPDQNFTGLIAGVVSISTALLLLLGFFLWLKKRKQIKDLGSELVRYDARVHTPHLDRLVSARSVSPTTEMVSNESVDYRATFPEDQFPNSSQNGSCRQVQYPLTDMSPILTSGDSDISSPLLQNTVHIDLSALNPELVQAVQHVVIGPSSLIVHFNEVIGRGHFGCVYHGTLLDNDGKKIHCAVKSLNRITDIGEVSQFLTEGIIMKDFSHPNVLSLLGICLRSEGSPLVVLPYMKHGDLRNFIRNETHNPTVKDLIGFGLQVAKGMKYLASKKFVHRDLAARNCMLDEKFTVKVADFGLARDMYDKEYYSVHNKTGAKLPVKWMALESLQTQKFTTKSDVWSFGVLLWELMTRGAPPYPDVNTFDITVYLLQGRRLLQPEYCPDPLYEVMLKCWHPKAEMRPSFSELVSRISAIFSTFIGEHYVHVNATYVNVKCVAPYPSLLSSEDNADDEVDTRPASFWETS

[26] = Aqueous solubility of the compound; assay type: physicochemical; settings: buffer
[27] = target: Serine/threonine-protein kinase Chk1 (Homo sapiens, UniProt O14757); assay: Inhibition of Chk1
[28] = Oral bioavailability in mouse; assay type: ADME, organism-based; settings: in vivo
[29] = target: Mitogen-activated protein kinase 1 (Homo sapiens, UniProt P28482); assay: Inhibition of ERK2
Chain of Mitogen-activated protein kinase 1 (P28482 whole entry): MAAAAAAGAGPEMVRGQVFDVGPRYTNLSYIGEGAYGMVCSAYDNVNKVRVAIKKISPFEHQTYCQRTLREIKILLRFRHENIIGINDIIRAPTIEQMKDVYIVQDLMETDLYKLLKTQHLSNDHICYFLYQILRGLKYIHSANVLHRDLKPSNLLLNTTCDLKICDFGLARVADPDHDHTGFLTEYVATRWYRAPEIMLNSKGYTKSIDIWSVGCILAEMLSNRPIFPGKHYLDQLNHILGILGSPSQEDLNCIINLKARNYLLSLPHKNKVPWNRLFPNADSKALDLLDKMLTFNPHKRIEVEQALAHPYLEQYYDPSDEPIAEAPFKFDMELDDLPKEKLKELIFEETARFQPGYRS

[30] = target: Ribosomal protein S6 kinase alpha-3 (Homo sapiens, UniProt P51812); assay: Inhibition of RSK2

Chain of Aurora kinase B (Q96GD4 whole entry): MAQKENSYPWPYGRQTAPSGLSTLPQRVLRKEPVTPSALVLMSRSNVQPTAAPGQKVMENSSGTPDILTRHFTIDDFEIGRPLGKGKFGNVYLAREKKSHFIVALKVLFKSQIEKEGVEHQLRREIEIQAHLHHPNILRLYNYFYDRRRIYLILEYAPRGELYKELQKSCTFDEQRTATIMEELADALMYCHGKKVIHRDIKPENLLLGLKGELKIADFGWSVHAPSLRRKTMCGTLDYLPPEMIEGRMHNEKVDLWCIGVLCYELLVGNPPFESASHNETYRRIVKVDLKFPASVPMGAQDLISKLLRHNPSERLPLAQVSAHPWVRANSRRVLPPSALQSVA

IC50 ([1]; read-out: IC50): 200 nM | IC50 [2]: 1600 nM
SMILES: Cn1cc(-c2cnc3c(Nc4cc(C5CCNCC5)ns4)nccn23)cn1

IC50 [1]: Not Active | IC50 [2]: > 10000 nM
SMILES: Cc1nsc(Nc2nccn3c(-c4cnn(C)c4)cnc23)n1

IC50 [1]: Not Active | IC50 [2]: 3700 nM
SMILES: CN(C)S(=O)(=O)c1ccc(Nc2nccn3c(-c4cnn(C)c4)cnc23)cc1

IC50 ([1]; read-out: IC50): 18 nM | IC50 [2]: 6 nM | EC50 [3]: 1300 nM
SMILES: CS(=O)(=O)N1CCC(c2cc(Nc3nccn4c(-c5cn[nH]c5)cnc34)sn2)CC1

IC50 ([1]; read-out: IC50): 120 nM | IC50 [2]: 81 nM
SMILES: O=S(=O)(c1ccc(Nc2nccn3c(-c4cn[nH]c4)cnc23)cc1)N1CCOCC1

IC50 ([1]; read-out: IC50): ≤ 13 nM | EC50 [3]: 850 nM
SMILES: CCc1cn2c(-c3cn[nH]c3)cnc2c(Nc2cc(C)ns2)n1

IC50 ([1]; read-out: IC50): 33 nM | IC50 [2]: 83 nM | EC50 [3]: > 10000 nM
SMILES: Cc1cc(Nc2nc(CCN)cn3c(-c4cn[nH]c4)cnc23)sn1

EC50 [3]: > 10000 nM
SMILES: Cc1cc(Nc2nc(SCCN(C)C)cn3c(-c4cn[nH]c4)cnc23)sn1

IC50 ([1]; read-out: IC50): 129 nM | EC50 [3]: 2500 nM
SMILES: Cc1cc(Nc2nc(Sc3ccc(F)cc3)cn3c(-c4cn[nH]c4)cnc23)sn1

The next lines start with the molecule.

SMILES: Cc1cc(Nc2nccn3c(-c4cn[nH]c4)cnc23)sn1
IC50 ([1]; read-out: IC50): ≤ 13 nM | IC50 [2]: ≤ 4 nM | EC50 [3]: 1300 nM

SMILES: CSc1cn2c(-c3cn[nH]c3)cnc2c(Nc2cc(C)ns2)n1
IC50 [4]: > 10000 nM | INH [5]: > 20 µM | IC50 [6]: > 10000 nM | IC50 [7]: > 10000 nM | INH [8]: > 20 µM | clearance [9]: 89 mL/min/kg | IC50 ([1]; read-out: IC50): ≤ 13 nM | IC50 [10]: > 10000 nM | fraction unbound [11]: 0.006 | IC50 [12]: > 10000 nM | IC50 [13]: 468 nM | INH [14]: > 20 µM | IC50 [15]: > 10000 nM | IC50 [16]: 167 nM | inhibition at 1.5 ug/ml [17]: 8.7% | IC50 [18]: > 10000 nM | IC50 [19]: > 10000 nM | Papp A→B [20]: 63.3 ×10⁻⁶ cm/s | hepatocyte CLint [21]: 49.7 µL/min/1e6 cells | IC50 [22]: 785 nM | IC50 [23]: 36 nM | IC50 [24]: > 10000 nM | IC50 [25]: > 10000 nM | solubility [26]: 25 µM (≈ 8.59 µg/mL) | IC50 [27]: 187 nM | EC50 [3]: 600 nM | bioavailability [28]: 4% | IC50 [29]: > 10000 nM | IC50 [30]: 1310 nM

SMILES: Cc1cc(Nc2nc(C)cn3c(-c4cn[nH]c4)cnc23)sn1
IC50 ([1]; read-out: IC50): ≤ 13 nM | EC50 [3]: 250 nM

SMILES: Cc1cc(Nc2nc(-c3cccnc3)cn3c(-c4cn[nH]c4)cnc23)sn1
IC50 ([1]; read-out: IC50): 62 nM | IC50 [2]: 8 nM | EC50 [3]: > 10000 nM

SMILES: Cc1cc(Nc2nccn3c(-c4cnn(C)c4)cnc23)sn1
IC50 ([1]; read-out: IC50): 360 nM | IC50 [2]: 570 nM

SMILES: CC(C)c1cc(Nc2nccn3c(-c4cnn(C)c4)cnc23)sn1
IC50 ([1]; read-out: IC50): 700 nM | IC50 [2]: 640 nM

SMILES: Cn1cc(-c2cnc3c(Nc4cc(C5CCN(S(C)(=O)=O)CC5)ns4)nccn23)cn1
IC50 ([1]; read-out: IC50): 110 nM | IC50 [2]: 170 nM

SMILES: Cc1csc(Nc2nccn3c(-c4cnn(C)c4)cnc23)n1
IC50 [1]: Not Active | IC50 [2]: > 10000 nM

SMILES: Cc1csc(Nc2nccn3c(-c4cnn(C)c4)cnc23)c1
IC50 ([1]; read-out: IC50): 3000 nM | IC50 [2]: 2500 nM

SMILES: CN(C)c1cccc(Nc2nccn3c(-c4cnn(C)c4)cnc23)c1
IC50 [1]: Not Active | IC50 [2]: > 10000 nM

SMILES: Cc1cc(Nc2nc(CN3CCOCC3)cn3c(-c4cn[nH]c4)cnc23)sn1
IC50 ([1]; read-out: IC50): 110 nM | IC50 [2]: 50 nM | EC50 [3]: > 10000 nM

SMILES: Cc1cc(Nc2nc(C(F)(F)F)cn3c(-c4cn[nH]c4)cnc23)sn1
IC50 ([1]; read-out: IC50): 252 nM | IC50 [2]: 27 nM | EC50 [3]: > 10000 nM

SMILES: Cc1cc(Nc2nc(C3CC3)cn3c(-c4cn[nH]c4)cnc23)sn1
IC50 ([1]; read-out: IC50): 51 nM | IC50 [2]: 17 nM | EC50 [3]: 2600 nM

SMILES: Cc1cc(Nc2nc(C#N)cn3c(-c4cn[nH]c4)cnc23)sn1
IC50 ([1]; read-out: IC50): 219 nM | IC50 [2]: 46 nM | EC50 [3]: > 10000 nM

SMILES: Cc1cc(Nc2nc(S(C)(=O)=O)cn3c(-c4cn[nH]c4)cnc23)sn1
IC50 ([1]; read-out: IC50): > 3000 nM | IC50 [2]: 603 nM

SMILES: CCSc1cn2c(-c3cn[nH]c3)cnc2c(Nc2cc(C)ns2)n1
IC50 ([1]; read-out: IC50): 24 nM

SMILES: Cc1cc(Nc2nc(SC(C)(C)C)cn3c(-c4cn[nH]c4)cnc23)sn1
IC50 ([1]; read-out: IC50): 272 nM | EC50 [3]: 5600 nM

SMILES: Cc1cc(Nc2nc([S+](C)[O-])cn3c(-c4cn[nH]c4)cnc23)sn1 (racemic)
IC50 ([1]; read-out: IC50): 185 nM | IC50 [2]: 30 nM | EC50 [3]: > 10000 nM
